Data on 26 molecules can be found in patent publication US8829007B2 (priority 2009, dated 2014).

Test [1] has as its system influenza A virus (A/PR/8/34). The test is described as follows: microbe, parasite or virus in culture. Particulars: Influenza A virus, PR/8, MDCK, read-out: IC50 (mean all). It is filed as cell-based.
In test [2] the test system is A/PR/8/34 influenza virus. The test is described as follows: microbe, parasite or virus in culture. It is filed as cell-based. Particulars: Influenza A virus, PR/8, MDCK, read-out: EC50 (mean all).
The mark [3] stands for this setting: MDCK cells infected with A/PR/8/34, cell protection (CPE).
The mark [4] stands for this setting: MDCK cells infected with A/PR/8/34, bDNA viral RNA.

Molecules are shown by their SMILES. Like-named read-outs stand apart in the source and are kept apart here.

One may read the IC50 as the concentration that inhibits the measured activity by half. For orientation: EC50 means the concentration that produces a half-maximal response.

For the molecule `CCOC(=O)NC(=O)N1CCC[C@@H](CNc2nc(-c3c[nH]c4ncc(Cl)cc34)ncc2F)C1` [Compound 26, (S)-ethyl 3-((2-(5-chloro-1H-pyrrolo[2,3-b]pyridin-3-yl)-5-fluoropyrimidin-4-ylamino)methyl)piperidine-1-carbonylcarbamate], in test [1] (setting [3]), the IC50 was less than 5 µM. Further, the EC50 in test [2] (setting [4]) is less than 5 µM.
On to `CC(C)NC(=O)N1CCC[C@@H](CNc2nc(-c3c[nH]c4ncc(Cl)cc34)ncc2F)C1` [Compound 27, (S)-3-((2-(5-chloro-1H-pyrrolo[2,3-b]pyridin-3-yl)-5-fluoropyrimidin-4-ylamino)methyl)-N-isopropylpiperidine-1-carboxamide], for which the half-inhibitory concentration (IC50) in test [1] (setting [3]) is less than 5 µM. Also, the EC50 in test [2] (setting [4]) is less than 5 µM.
For the molecule `CC(C)COC(=O)N1CCC[C@@H](CNc2nc(-c3c[nH]c4ncc(Cl)cc34)ncc2F)C1` [Compound 28, (S)-isobutyl 3-((2-(5-chloro-1H-pyrrolo[2,3-b]pyridin-3-yl)-5-fluoropyrimidin-4-ylamino)methyl)piperidine-1-carboxylate], the IC50 in test [1] (setting [3]) is more than 20 µM. In test [2] (setting [4]), the EC50 is less than 5 µM.
Consider `CC#CCOC(=O)N1CCC[C@@H](CNc2nc(-c3c[nH]c4ncc(Cl)cc34)ncc2F)C1` [Compound 30, (S)-but-2-ynyl 3-((2-(5-chloro-1H-pyrrolo[2,3-b]pyridin-3-yl)-5-fluoropyrimidin-4-ylamino)methyl)piperidine-1-carboxylate], for which the IC50 in test [1] was in the range of 5 to 20 µM. Moreover, the EC50 in test [2] was less than 5 µM.
`N[C@@H]1CCCC[C@H]1Nc1nc(-c2c[nH]c3ncc(Cl)cc23)ncc1C(F)(F)F` [Compound 31, (1R,2R)—N1-(2-(5-chloro-1H-pyrrolo[2,3-b]pyridin-3-yl)-5-(trifluoromethyl)pyrimidin-4-yl)cyclohexane-1,2-diamine]: the IC50 in test [1] (setting [3]) is less than 5 µM. In addition, the EC50 in test [2] (setting [4]) was less than 5 µM.
With `CCC(=O)N1CCC[C@@H](CNc2nc(-c3c[nH]c4ncc(Cl)cc34)ncc2F)C1` [Compound 32, (S)-1-(3-((2-(5-chloro-1H-pyrrolo[2,3-b]pyridin-3-yl)-5-fluoropyrimidin-4-ylamino)methyl)piperidin-1-yl)propan-1-one], in test [1] (setting [3]), the IC50 is less than 5 µM. For the same molecule, the EC50 in test [2] (setting [4]) is less than 5 µM.
Consider `CCOC(=O)N1CCC[C@@H](CNc2nc(-c3c[nH]c4ncc(Cl)cc34)ncc2F)C1` [Compound 33, (S)-ethyl 3-((2-(5-chloro-1H-pyrrolo[2,3-b]pyridin-3-yl)-5-fluoropyrimidin-4-ylamino)methyl)piperidine-1-carboxylate], for which the IC50 in test [1] (setting [3]) was less than 5 µM. For the same molecule, the EC50 in test [2] (setting [4]) was less than 5 µM.
For the molecule `CS(=O)(=O)N1CCC[C@@H](CNc2nc(-c3c[nH]c4ncc(Cl)cc34)ncc2F)C1` [Compound 36, (S)-2-(5-chloro-1H-pyrrolo[2,3-b]pyridin-3-yl)-5-fluoro-N-((1-(methylsulfonyl)-piperidin-3-yl)methyl)pyrimidin-4-amine], in test [1] (setting [3]), the IC50 is less than 5 µM. In test [2] (setting [4]), the 50% effective concentration (EC50) was less than 5 µM.
In the case of `CC(=O)N1CCC[C@@H](CNc2nc(-c3c[nH]c4ncc(Cl)cc34)ncc2F)C1` [Compound 37, (S)-1-(3-((2-(5-chloro-1H-pyrrolo[2,3-b]pyridin-3-yl)-5-fluoropyrimidin-4-ylamino)methyl)piperidin-1-yl)ethanone], in test [1] (setting [3]), the half-maximal inhibitory concentration (IC50) is less than 5 µM. Moreover, in test [2] (setting [4]), the EC50 was less than 5 µM.
For the molecule `C=CCNC(=O)N1CCC[C@@H](CNc2nc(-c3c[nH]c4ncc(Cl)cc34)ncc2F)C1` [Compound 39, (S)—N-allyl-3-((2-(5-chloro-1H-pyrrolo[2,3-b]pyridin-3-yl)-5-fluoropyrimidin-4-ylamino)methyl)piperidine-1-carboxamide], in test [1] (setting [3]), the concentration for half-maximal inhibition (IC50) is less than 5 µM. In addition, in test [2] (setting [4]), the EC50 was less than 5 µM.
On to `CC=CC(=O)N1CCC[C@@H](CNc2nc(-c3c[nH]c4ncc(Cl)cc34)ncc2F)C1` [Compound 41, (S)-1-(3-((2-(5-chloro-1H-pyrrolo[2,3-b]pyridin-3-yl)-5-fluoropyrimidin-4-ylamino)methyl)piperidin-1-yl)but-2-en-1-one], for which the concentration for half-maximal inhibition (IC50) in test [1] was less than 5 µM. In test [2], the EC50 was less than 5 µM.
In the case of `O=C(CC(F)(F)F)N1CCC[C@@H](CNc2nc(-c3c[nH]c4ncc(Cl)cc34)ncc2F)C1` [Compound 44, (S)-1-(3-((2-(5-chloro-1H-pyrrolo[2,3-b]pyridin-3-yl)-5-fluoropyrimidin-4-ylamino)methyl)piperidin-1-yl)-3,3,3-trifluoropropan-1-one], in test [1] (setting [3]), the IC50 is less than 5 µM. Further, the EC50 in test [2] (setting [4]) was less than 5 µM.
Take `COCC(=O)N1CCC[C@@H](CNc2nc(-c3c[nH]c4ncc(Cl)cc34)ncc2F)C1` [Compound 45, (S)-1-(3-((2-(5-chloro-1H-pyrrolo[2,3-b]pyridin-3-yl)-5-fluoropyrimidin-4-ylamino)methyl)piperidin-1-yl)-2-methoxyethanone]: the IC50 in test [1] (setting [3]) was less than 5 µM. Further, in test [2] (setting [4]), the EC50 is less than 5 µM.
Take `O=C(Cc1cccnc1)N1CCC[C@@H](CNc2nc(-c3c[nH]c4ncc(Cl)cc34)ncc2F)C1` [Compound 47, (S)-1-(3-((2-(5-chloro-1H-pyrrolo[2,3-b]pyridin-3-yl)-5-fluoropyrimidin-4-ylamino)methyl)piperidin-1-yl)-2-(pyridin-3-yl)ethanone]: the IC50 in test [1] (setting [3]) was less than 5 µM. The concentration for a half-maximal effect (EC50) in test [2] (setting [4]) is less than 5 µM.
In the case of `C=CCC(=O)N1CCC[C@@H](CNc2nc(-c3c[nH]c4ncc(Cl)cc34)ncc2F)C1` [Compound 49, (S)-1-(3-((2-(5-chloro-1H-pyrrolo[2,3-b]pyridin-3-yl)-5-fluoropyrimidin-4-ylamino)methyl)piperidin-1-yl)but-3-en-1-one], in test [1] (setting [3]), the IC50 was less than 5 µM. For the same molecule, in test [2] (setting [4]), the EC50 is less than 5 µM.
For `O=C1CC[C@H](C(=O)N2CCC[C@@H](CNc3nc(-c4c[nH]c5ncc(Cl)cc45)ncc3F)C2)O1` [Compound 51, (R)-5-((S)-3-((2-(5-chloro-1H-pyrrolo[2,3-b]pyridin-3-yl)-5-fluoropyrimidin-4-ylamino)methyl)piperidine-1-carbonyl)dihydrofuran-2(3H)-one], the concentration for half-maximal inhibition (IC50) in test [1] (setting [3]) was less than 5 µM. The EC50 in test [2] (setting [4]) is less than 5 µM.
Regarding `C#CCCC(=O)N1CCC[C@@H](CNc2nc(-c3c[nH]c4ncc(Cl)cc34)ncc2F)C1` [Compound 52, (S)-1-(3-((2-(5-chloro-1H-pyrrolo[2,3-b]pyridin-3-yl)-5-fluoropyrimidin-4-ylamino)methyl)piperidin-1-yl)pent-4-yn-1-one], the IC50 in test [1] (setting [3]) was less than 5 µM. The EC50 in test [2] (setting [4]) is less than 5 µM.
Regarding `O=C(O)[C@H]1CC[C@@H](C(=O)N2CCC[C@H](CNc3nc(-c4c[nH]c5ncc(Cl)cc45)ncc3F)C2)C1` [Compound 55, (1S,3R)-3-((R)-3-((2-(5-chloro-1H-pyrrolo[2,3-b]pyridin-3-yl)-5-fluoropyrimidin-4-ylamino)methyl)piperidine-1-carbonyl)cyclopentanecarboxylic acid], in test [1] (setting [3]), the IC50 is less than 5 µM. Moreover, the EC50 in test [2] (setting [4]) is less than 5 µM.
Turning to `O=C(Cc1ccccc1)N1CCC[C@H](CNc2nc(-c3c[nH]c4ncc(Cl)cc34)ncc2F)C1` [Compound 56, (R)-1-(3-((2-(5-chloro-1H-pyrrolo[2,3-b]pyridin-3-yl)-5-fluoropyrimidin-4-ylamino)methyl)piperidin-1-yl)-2-phenylethanone], in test [1] (setting [3]), the concentration for half-maximal inhibition (IC50) was less than 5 µM. Moreover, the EC50 in test [2] (setting [4]) was less than 5 µM.
`CC(C)=CC(=O)N1CCC[C@H](CNc2nc(-c3c[nH]c4ncc(Cl)cc34)ncc2F)C1` [Compound 57, (R)-1-(3-((2-(5-chloro-1H-pyrrolo[2,3-b]pyridin-3-yl)-5-fluoropyrimidin-4-ylamino)methyl)piperidin-1-yl)-3-methylbut-2-en-1-one]: the IC50 in test [1] is less than 5 µM. Further, the EC50 in test [2] is less than 5 µM.
Turning to `O=S(=O)(/C=C/c1ccccc1)N1CCC[C@H](CNc2nc(-c3c[nH]c4ncc(Cl)cc34)ncc2F)C1` [Compound 60, (R,E)-2-(5-chloro-1H-pyrrolo[2,3-b]pyridin-3-yl)-5-fluoro-N-((1-(styrylsulfonyl)piperidin-3-yl)methyl)pyrimidin-4-amine], the concentration for half-maximal inhibition (IC50) in test [1] (setting [3]) was less than 5 µM. Moreover, the concentration giving a half-maximal response (EC50) in test [2] (setting [4]) was less than 5 µM.
For the molecule `O=S(=O)(C1CC1)N1CCC[C@H](CNc2nc(-c3c[nH]c4ncc(Cl)cc34)ncc2F)C1` [Compound 61, (R)-2-(5-chloro-1H-pyrrolo[2,3-b]pyridin-3-yl)-N-((1-(cyclopropylsulfonyl)piperidin-3-yl)methyl)-5-fluoropyrimidin-4-amine], the IC50 in test [1] (setting [3]) is less than 5 µM. In test [2] (setting [4]), the EC50 is less than 5 µM.
For the molecule `COc1cccc(S(=O)(=O)N2CCC[C@H](CNc3nc(-c4c[nH]c5ncc(Cl)cc45)ncc3F)C2)c1` [Compound 62, (R)-2-(5-chloro-1H-pyrrolo[2,3-b]pyridin-3-yl)-5-fluoro-N-((1-(3-methoxyphenylsulfonyl)piperidin-3-yl)methyl)pyrimidin-4-amine], in test [1] (setting [3]), the IC50 was less than 5 µM. Also, the EC50 in test [2] (setting [4]) was less than 5 µM.
Turning to `O=S(=O)(c1ccc(F)cc1)N1CCC[C@H](CNc2nc(-c3c[nH]c4ncc(Cl)cc34)ncc2F)C1` [Compound 64, (R)-2-(5-chloro-1H-pyrrolo[2,3-b]pyridin-3-yl)-5-fluoro-N-((1-(4-fluorophenylsulfonyl)piperidin-3-yl)methyl)pyrimidin-4-amine], the IC50 in test [1] (setting [3]) was 5 to 20 µM. Further, the EC50 in test [2] (setting [4]) is less than 5 µM.
The matching figures for `O=S(=O)(c1cccc(F)c1)N1CCC[C@H](CNc2nc(-c3c[nH]c4ncc(Cl)cc34)ncc2F)C1` [Compound 65, (R)-2-(5-chloro-1H-pyrrolo[2,3-b]pyridin-3-yl)-5-fluoro-N-((1-(3-fluorophenylsulfonyl)piperidin-3-yl)methyl)pyrimidin-4-amine]: less than 5 µM and less than 5 µM.
Take `Cc1cccc(S(=O)(=O)N2CCC[C@H](CNc3nc(-c4c[nH]c5ncc(Cl)cc45)ncc3F)C2)c1` [Compound 66, (R)-2-(5-chloro-1H-pyrrolo[2,3-b]pyridin-3-yl)-5-fluoro-N-((1-(m-tolylsulfonyl)piperidin-3-yl)methyl)pyrimidin-4-amine]: the IC50 in test [1] (setting [3]) is less than 5 µM. For the same molecule, the EC50 in test [2] (setting [4]) was less than 5 µM.
